This note sets out measurements from ChEMBL document CHEMBL4118062, “Novel NO-releasing plumbagin derivatives: Design, synthesis and evaluation of antiproliferative activity” (Eur J Med Chem, 2017).

In data set [1] the test system is HepG2. As to the kind of experiment: Cytotoxicity against human HepG2 cells assessed as growth inhibition at 40 uM after 72 hrs by MTT assay relative to control. It counts as functional. The conditions noted are these: HepG2, 72 h, read-out: GI.
Data set [2] has as its system MDA-MB-231. As to the kind of experiment: Cytotoxicity against human MDA-MB-231 cells assessed as growth inhibition at 40 uM after 72 hrs by MTT assay relative to control. Format: functional. The conditions noted are these: MDA-MB-231, 72 h, read-out: GI.
For data set [3], the system named is HepG2. As to the kind of experiment: Cytotoxicity against human HepG2 cells assessed as growth inhibition at 20 uM after 72 hrs by MTT assay relative to control. Format: functional. The conditions noted are these: HepG2, 72 h, read-out: GI.
Data set [4] relates to MDA-MB-231. As to the kind of experiment: Cytotoxicity against human MDA-MB-231 cells assessed as growth inhibition at 20 uM after 72 hrs by MTT assay relative to control. It counts as functional. The conditions noted are these: MDA-MB-231, 72 h, read-out: GI.
Data set [5] can be described thus: Selectivity ratio of IC50 for human A549 cells to IC50 for human MDA-MB-231 cells. Format: functional.
Data set [6] relates to HepG2. Briefly: Cytotoxicity against human HepG2 cells assessed as growth inhibition at 10 uM after 72 hrs by MTT assay relative to control. The conditions noted are these: HepG2, 72 h, read-out: GI. Format: functional.
Data set [7] relates to MDA-MB-231. As to the kind of experiment: Cytotoxicity against human MDA-MB-231 cells assessed as growth inhibition at 10 uM after 72 hrs by MTT assay relative to control. It counts as functional. The conditions noted are these: MDA-MB-231, 72 h, read-out: GI.
Data set [8] can be described thus: Selectivity ratio of IC50 for human HepG2 cells to IC50 for human MDA-MB-231 cells. Format: functional.
For data set [9], the system named is MDA-MB-231. As to the kind of experiment: Cytotoxicity against human MDA-MB-231 cells assessed as growth inhibition after 72 hrs by MTT assay. Format: functional, cell-based. The conditions noted are these: MDA-MB-231, 72 h.
The test system of data set [10] is A549. Briefly: Cytotoxicity against human A549 cells assessed as growth inhibition after 72 hrs by MTT assay. It counts as functional, cell-based. The conditions noted are these: A549, 72 h.
Data set [11] has as its system HepG2. Briefly: Cytotoxicity against human HepG2 cells assessed as growth inhibition after 72 hrs by MTT assay. Format: functional, cell-based. The conditions noted are these: HepG2, 72 h.
Data set [12] can be described thus: Chemical stability in PBS at pH 7.4 assessed as parent compound remaining at 1000 uM after 24 hrs by HPLC method. Format: physicochemical. The conditions noted are these: read-out: Stability.
Data set [13] can be described thus: Chemical stability in PBS at pH 8 at 1000 uM after 24 hrs by HPLC method. It counts as physicochemical. The conditions noted are these: buffer, pH 8, 24 h.
Data set [14] is described as follows: Chemical stability in PBS at pH 6 at 1000 uM after 3 to 24 hrs by HPLC method. It counts as physicochemical. The conditions noted are these: buffer, pH 6, 1000 µM.
A short description of data set [15]: Drug metabolism in human MDA-MB-231 cells assessed as nitric oxide release at 30 uM after 0.5 to 30 hrs by Griess assay. The conditions noted are these: mda-mb-231, 30 µM. It counts as ADME, cell-based.
Data set [16] in a line: Drug degradation in PBS at pH 7.4 at 1000 uM after 24 hrs by HPLC method. The conditions noted are these: read-out: Drug degradation. It counts as physicochemical.
Data set [17] is described as follows: Drug degradation in PBS at pH 8 at 1000 uM after 24 hrs by HPLC method. It counts as physicochemical. The conditions noted are these: read-out: Drug degradation.

Consider `CC1=C(CCC(=O)O)C(=O)c2c(O)cccc2C1=O`, for which the figures for the inhibition of growth at 40 µM in data set [1] and in [2] were 20.3% and 5%, respectively.

`CC1=C(CCCC(=O)O)C(=O)c2c(O)cccc2C1=O`: the results for the inhibition of growth at 20 µM in data set [3] and in data set [4] were 23.2% and 6.1%, respectively.

As for `CC1=C(CC(=O)OCCCOc2no[n+]([O-])c2S(=O)(=O)c2ccccc2)C(=O)c2c(O)cccc2C1=O`, the “Ratio IC50” value in data set [5] turned out to be 4; in data set [8], 2.5. Further, the inhibition of growth at 10 µM in data set [6] stood at 97.2%; in data set [7], 97.7%. Further, the IC50 in data set [9] turned out to be 1.76 µM; in [10] it was 7 µM; in [11] it was 4.41 µM.

In the case of `CC1=C(CCC(=O)OCCOc2no[n+]([O-])c2S(=O)(=O)c2ccccc2)C(=O)c2c(O)cccc2C1=O`, the “Ratio IC50” value was 7.7 in data set [5] and 2.5 in data set [8]. Besides, the inhibition of growth at 10 µM was found to be 95.7% in data set [6] and 97.6% in [7]. Moreover, the remaining at 24 h, 1000 µM in [12] was above 98%. The Stability result in [13] and in [14] was “Stable” in each case. For the same compound, the half-maximal inhibitory concentration (IC50) was 1.21 µM in data set [9], 9.31 µM in data set [10] and 2.98 µM in data set [11].

On to `CC1=C(CCC(=O)OCC(C)COc2no[n+]([O-])c2S(=O)(=O)c2ccccc2)C(=O)c2c(O)cccc2C1=O` (centres undefined), for which the “Ratio IC50” value in [5] was found to be 6.8; in [8], 2.5. Besides, in [15], the Drug metabolism result was “Metabolite_Detected”. Also, the values for the inhibition of growth at 10 µM in data set [6] and in data set [7] were 73.4% and 97.4%, respectively. The IC50 in data set [9] is 2.67 µM; in data set [10] it was 18.2 µM; in [11], 6.69 µM.

In the case of `CC1=C(C(C)CC(=O)OCCCCOc2no[n+]([O-])c2S(=O)(=O)c2ccccc2)C(=O)c2c(O)cccc2C1=O` (centres undefined), the “Ratio IC50” value in [5] turned out to be 10; in data set [8], 2.1. For the same compound, the figures for the inhibition of growth at 10 µM in [6] and in [7] were 89.2% and 92.7%, respectively. Further, the IC50 came to 1.98 µM in data set [9], 19.6 µM in [10] and 4.24 µM in data set [11].

`CC1=C(CCCC(=O)OCCOc2no[n+]([O-])c2S(=O)(=O)c2ccccc2)C(=O)c2c(O)cccc2C1=O`: the results for the “Ratio IC50” value in data set [5] and in [8] were 6.7 and 2.7, respectively. Further, the inhibition of growth at 10 µM came to 95.1% in [6] and 97.9% in data set [7]. Besides, the IC50 in [9] turned out to be 1.52 µM; in data set [10], 10.2 µM; in [11], 4.16 µM.

On to `CC1=C(CC(=O)O)C(=O)c2c(O)cccc2C1=O`, for which the inhibition of growth at 40 µM in [1] was found to be 11%; in data set [2], 2.4%.

Consider `CC1=C(C(C)CC(=O)OCC(C)COc2no[n+]([O-])c2S(=O)(=O)c2ccccc2)C(=O)c2c(O)cccc2C1=O` (centres undefined), for which the entries for the “Ratio IC50” value in data set [5] and in data set [8] were 6.1 and 1.8, respectively. The Drug metabolism entry in data set [15] was “Metabolite_Detected”. The inhibition of growth at 10 µM in data set [6] is 91.5%; in data set [7], 94.4%. Further, the figures for the IC50 in data set [9], in data set [10] and in data set [11] were 2.11 µM, 12.8 µM and 3.74 µM, respectively.

Regarding `CC1=C(CC(=O)OCCCCOc2no[n+]([O-])c2S(=O)(=O)c2ccccc2)C(=O)c2c(O)cccc2C1=O`, the entries for the “Ratio IC50” value in [5] and in data set [8] were above 3.8 and 1.5, respectively. In addition, the Drug metabolism entry in data set [15] is “Metabolite_Detected”. The inhibition of growth at 10 µM in [6] was found to be 87.2%; in data set [7] it was 96.3%. For the same compound, the values for the half-inhibitory concentration (IC50) in data set [9], in data set [10] and in data set [11] were 5.2 µM, above 20 µM and 7.72 µM, respectively.

For the compound `CC1=C(CCC(=O)OCCCOc2no[n+]([O-])c2S(=O)(=O)c2ccccc2)C(=O)c2c(O)cccc2C1=O`, the figures for the “Ratio IC50” value in data set [5] and in [8] were above 4.7 and 1.6, respectively. In addition, the Drug metabolism result in data set [15] is “Metabolite_Detected”. The inhibition of growth at 10 µM worked out at 95.1% in [6] and 96.8% in [7]. Moreover, the IC50 is 4.31 µM in data set [9], above 20 µM in data set [10] and 6.79 µM in data set [11].

On to `CC1=C(CC(=O)OCCOc2no[n+]([O-])c2S(=O)(=O)c2ccccc2)C(=O)c2c(O)cccc2C1=O`, for which the inhibition of growth at 10 µM in [6] was determined as 93.3%; in data set [7] it was 97.3%. Also, the “Ratio IC50” value in [8] came out at 1.9. In addition, the IC50 in data set [9] is 3.27 µM; in data set [10], 18.6 µM; in [11], 6.11 µM.

Regarding `CC1=C(CC(=O)OCC(C)COc2no[n+]([O-])c2S(=O)(=O)c2ccccc2)C(=O)c2c(O)cccc2C1=O` (centres undefined), the results for the “Ratio IC50” value in [5] and in data set [8] were 3.9 and 2, respectively. Also, the Drug metabolism result in [15] is reported as “Metabolite_Detected”. For the same compound, the inhibition of growth at 10 µM amounted to 96.6% in data set [6] and 97.3% in data set [7]. The IC50 is 1.51 µM in data set [9], 5.83 µM in data set [10] and 3 µM in data set [11].

As for `CC1=C(C(C)CC(=O)OCCCOc2no[n+]([O-])c2S(=O)(=O)c2ccccc2)C(=O)c2c(O)cccc2C1=O` (centres undefined), the figures for the “Ratio IC50” value in data set [5] and in data set [8] were 5.8 and 1.8, respectively. In addition, in data set [15], the Drug metabolism entry is given as “Metabolite_Detected”. Moreover, the inhibition of growth at 10 µM in data set [6] stood at 92.7%; in [7], 95.3%. Further, the figures for the IC50 in [9], in data set [10] and in [11] were 2.42 µM, 13.9 µM and 4.32 µM, respectively.

Take `CC1=C(CCC(=O)OCCCCOc2no[n+]([O-])c2S(=O)(=O)c2ccccc2)C(=O)c2c(O)cccc2C1=O`: the “Ratio IC50” value in [5] is 6.7; in [8] it was 2.7. The Drug metabolism result in data set [15] is given as “Metabolite_Detected”. The inhibition of growth at 10 µM in data set [6] is 95.4%; in data set [7] it was 97.6%. Besides, the IC50 in data set [9] amounted to 1.24 µM; in data set [10], 8.31 µM; in data set [11] it was 3.33 µM.

For `CC(=O)c1cc2c(o1)C(=O)c1ccccc1C2=O` [NAPABUCASIN], the figures for the “Ratio IC50” value in data set [5] and in data set [8] were 2.2 and 1.8, respectively. In addition, the IC50 in [9] was 0.34 µM; in [10], 0.74 µM; in data set [11], 0.66 µM.

Turning to `CC1=CC(=O)c2c(O)cccc2C1=O` [PLUMBAGIN], the results for the “Ratio IC50” value in data set [5] and in [8] were 0.9 and 0.7, respectively. Further, the degraded at 24 h, 1000 µM in data set [16] and in data set [17] was above 95% throughout. In addition, the inhibition of growth at 10 µM in [6] amounted to 41%; in data set [7], 32.8%. Moreover, the results for the IC50 in [9], in [10] and in [11] were 14.2 µM, 12.4 µM and 10.7 µM, respectively. The Stability entry in [14] is on record as “Stable”.
